From publication PMC10762078, “Role of UPF1-LIN28A interaction during early differentiation of pluripotent stem cells” (Nature Communications, 2024)
Ends that are not written are not given here.

Experiments:
[1] = tested on: nonsense-mediated mRNA decay (NMD); assay: NMD reporter mRNA by RT-qPCR in HeLa cells without LIN28A, with CPP-peptides (Supplementary Fig. 5c); format: cell-based; conditions: no LIN28A, 2 μM, n = 5
Method: (§1) For CPP-conjugated peptide delivery, HeLa, 293T, and PA-1 cells were incubated with CPP-conjugated peptides or CPP-FITC at 2 μM in DMEM with 10% FBS for 12 h a day before cell harvest. hPSCs were treated with CPP-conjugated peptides at 10 μM in mTeSR Plus Medium, and the peptide-containing medium was changed every day over 10 days. The ROCK inhibitor (Tocris Bioscience, Y-27632) treated-hPSCs were dissociated into single cells using Accutase (Merck, SCR005) and differentiated into ectoderm, mesoderm, and endoderm using the STEMdiff Trilineage Differentiation Kit ([…] Technologies, 05230) following the manufacturer’s protocol. Differentiated cells treated with CPP-conjugated peptides were analysed at 0, 3, and 5 days for ectoderm and endoderm, and at 0, 3, and 4 days for mesoderm. […]
(§2) cDNA was synthesised using RevertAid Reverse Transcriptase (Thermo Fisher Scientific, EP0441) with synthesised random hexamer (Macrogen) for total RNA or stem-loop primers for miRNA. For RT-qPCR reactions, the SensiFAST SYBR No-ROX kit (Meridian Bioscience) was used according to the manufacturer’s protocol. All data analysis and visualisation were conducted using R 3.6.1 [www.r-project.org] or GraphPad Prism 10. RT primers for miRNA and RT-qPCR primer sequences are provided in Supplementary Data 6. […]

[2] = tested on: nonsense-mediated mRNA decay (NMD); assay: NMD reporter mRNA by RT-qPCR in UPF1-depleted HeLa cells with FLAG-LIN28A and CPP-peptides (Supplementary Fig. 5d); format: cell-based; conditions: siUPF1 + FLAG-LIN28A, 2 μM, n = 3
Method: as §1, §2

UPF1-LIN28A interaction = assay: Proximity ligation assay (PLA) of UPF1-LIN28A complexes; format: cell-based; conditions: LIN28A-overexpressing HeLa and CHA15 cells, n = 3
Method: The in situ proximity ligation assay (PLA) was performed on fixed and permeabilised cells using Duolink In Situ Red kit mouse/rabbit (Sigma-Aldrich, DUO92101), according to the manufacturer’s protocol. Briefly, fixed and permeabilised cells were incubated with a blocking solution for 1 h at 37 °C and then incubated with the following primary antibodies: anti-UPF1 (Cell Signaling Technology, 12040; 1:200) and LIN28A (Cell Signaling Technology, 5930; 1:200) overnight at 4 °C. After incubation, the coverslips were washed twice with 1× buffer A, followed by incubation with PLA probes for 1 h at 37 °C. After washing twice with 1× buffer A for 5 min, the coverslip was incubated with the ligation solution for 30 min at 37 °C. Coverslips were washed twice with 1× buffer A, followed by an amplification step with polymerase for 100 min at 37 °C. Finally, the coverslip was washed twice with 1× buffer B and once with 0.01× buffer B and then mounted in […] with DAPI mounting medium (Vector Laboratories, H1200).
Immunofluorescence staining, proximity ligation assay imaging, and cell-penetrating efficiency of CPP-FITC were imaged with a confocal laser scanning microscope (Leica, TSC SP5) or immunofluorescence microscope (Leica, DM5000B). Z-stacks were captured, with sections spanning the entire cell. […]

His-LIN28A = biological target: T1, His-LIN28A (Homo sapiens, UniProt Q9H9Z2); assay: SPR analyte-ligand binding screening of eight peptides (P1-P8); conditions: SPR screening at 15 μM, 3 min association, 6 min dissociation
T1 construct: purchased LS-bio LS-G637
T1 sequence (Q9H9Z2 1-209): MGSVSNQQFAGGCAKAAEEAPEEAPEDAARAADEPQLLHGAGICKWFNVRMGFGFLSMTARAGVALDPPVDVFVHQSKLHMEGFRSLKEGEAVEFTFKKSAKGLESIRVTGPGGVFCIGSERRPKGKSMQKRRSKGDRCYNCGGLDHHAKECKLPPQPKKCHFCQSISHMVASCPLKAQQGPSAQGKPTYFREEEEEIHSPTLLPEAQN
Method: For ligand immobilisation, the nitrilotriacetic acid (NTA) surface gold sensor chip (icluebio) was activated with 5 mM NiCl2 (Xantec) at a flow rate of 30 μL/min, following equalisation with 1× HBS-T buffer. His-LIN28A (LS-bio, LS-G637) was used as a ligand protein and was applied to a sensor chip at a flow rate of 10 μL/min for 40 min after dilution in 1× HEPES-buffered saline (HBS-T) buffer at a 1/20 ratio. Approximately 1000 resonance units (RU) were bonded to the sensor chip after ligand immobilisation. RU was measured using iMSPR-ProX (icluebio). An indigenous NTA sensor chip was used as a reference channel.
Analyte-ligand binding screening was performed by tethering the ligand and reference channels in the connected mode. […] After equalisation with 1× HBS-T buffer, the sensor chip was treated with each peptide for 3 min and then for 6 min with 1× HBS-T buffer for peptide dissociation.

Sequence	effect on NMD in absence of LIN28A [1]	effect on NMD in absence of UPF1 [2]	PLA signal of UPF1-LIN28A complexes (UPF1-LIN28A interaction)	binding affinity vs others (His-LIN28A)
KKKWCRKKKSSADEKRYRALKRTAERELLMNA [CPP-P8, CPP conjugated to P8]	did not affect NMD in the absence of LIN28A	did not affect NMD in the absence of LIN28A or UPF1	weaker signals than CPP-P1 or -P2	
KKKWCRKKKSSADEKRYRALKRTAERELLMNA [P8]				significantly
